# Data reported in US6737383B1, “Herbicidal oxadiazolidines” (priority 1999, dated 2004).
# Key:
# [1] = system: bedstraw; experiment: Test B pre/postemergence bedstraw; assay type: in vivo, Galium aparine
# Method in brief: (§1)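 Response is a visual 0-to-10 score relative to untreated plants, where 0 means no effect and 10 means complete control, taken twelve to sixteen days after application. Treatments went onto soil at planting and onto foliage of 1- to 4-leaf plants, using a surfactant-containing non-phytotoxic solvent.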
# [2] = system: blackgrass; experiment: Test B pre/postemergence blackgrass; assay type: in vivo, Alopecurus myosuroides
# Method in brief: as §1
# [3] = system: surinam grass; experiment: Test B pre/postemergence surinam grass; assay type: in vivo, Brachiaria decumbens
# Method in brief: as §1
# [4] = system: cocklebur; experiment: Test B pre/postemergence cocklebur; assay type: in vivo, Xanthium strumarium
# Method in brief: as §1
# [5] = system: giant foxtail; experiment: Test B pre/postemergence giant foxtail; assay type: in vivo, Setaria faberii
# Method in brief: as §1
# [6] = system: morningglory; experiment: Test B pre/postemergence morningglory; assay type: in vivo, Ipomoea hederacea
# Method in brief: as §1
# [7] = system: pigweed; experiment: Test B pre/postemergence pigweed; assay type: in vivo, Amaranthus retroflexus
# Method in brief: as §1
# [8] = system: rape; experiment: Test B pre/postemergence rape; assay type: in vivo, Brassica napus
# Method in brief: as §1
# [9] = system: soybean; experiment: Test B pre/postemergence soybean; assay type: in vivo, Glycine max
# Method in brief: as §1
# [10] = system: velvetleaf; experiment: Test B pre/postemergence velvetleaf; assay type: in vivo, Abutilon theophrasti
# Method in brief: as §1
# [11] = system: wheat; experiment: Test B pre/postemergence wheat; assay type: in vivo, Triticum aestivum
# Method in brief: as §1
# [12] = system: wild oat; experiment: Test B pre/postemergence wild oat; assay type: in vivo, Avena fatua
# Method in brief: as §1
# [13] = system: purple nutsedge; experiment: Test B pre/postemergence purple nutsedge; assay type: in vivo, Cyperus rotundus
# Method in brief: as §1
# [14] = system: smallflower flatsedge; experiment: Test B flood test smallflower flatsedge; assay type: in vivo, Cyperus difformis
# Method in brief: (§2)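 Flood test on plants grown to the 2-leaf stage; treated plants kept in greenhouse twelve to sixteen days, then visually rated against controls on a 0 (no effect) to 10 (complete control) scale.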
# [15] = system: duck salad; experiment: Test B flood test duck salad; assay type: in vivo, Heteranthera limosa
# Method in brief: as §2
# [16] = system: bamyardgrass; experiment: Test B flood test barnyardgrass; assay type: in vivo, Echinochloa crus-galli
# Method in brief: as §2
# [17] = Postemergence, Rate 125 g/ha, scale of 0 to 10 where 0 is no effect and 10 is complete control
# [18] = Preemergence, Rate 31 g/ha, visual rating, scale 0 to 10 (0 no effect, 10 complete control)
# [19] = Preemergence, Rate 62 g/ha, scale 0 to 10 (0 no effect, 10 complete control)
# [20] = Preemergence, Rate 125 g/ha, 0 is no effect, 10 is complete control
# [21] = Preemergence, Rate 250 g/ha, scale 0 to 10, 0 is no effect, 10 is complete control
# [22] = Preemergence, Rate 500 g/ha, scale 0 to 10 (0 no effect, 10 complete control)
# [23] = Rate 31 g/ha, Postemergence, scale 0 to 10
# [24] = Rate 62 g/ha, Postemergence, scale of 0 to 10 where 0 is no effect and 10 is complete control
# [25] = Rate 250 g/ha, Postemergence, scale 0 to 10, 0 is no effect, 10 is complete control
# [26] = Rate 500 g/ha, Postemergence, scale 0 to 10
# [27] = Postemergence (flood test species), Rate 125 g/ha, scale of 0 to 10 where 0 is no effect and 10 is complete control
# [28] = Rate 62 g/ha, Postemergence section, flood test species, scale of 0 to 10 where 0 is no effect and 10 is complete control
# [29] = Rate 62 g/ha, headed Pre-emergence (flood test species), scale 0 to 10 (0 no effect, 10 complete control)
# [30] = Rate 125 g/ha, Pre-emergence, flood test species, scale 0 to 10 where 0 is no effect and 10 is complete control
# [31] = Rate 250 g/ha, Postemergence (flood test), scale 0 to 10, 0 is no effect, 10 is complete control
# [32] = Rate 250 g/ha, Pre-emergence, flood-test species, scale 0 to 10, 0 is no effect, 10 is complete control
# [33] = Rate 500 g/ha, listed under Postemergence (flood test species), scale 0 to 10
# [34] = Rate 31 g/ha, Postemergence section (flood test species), scale 0 to 10
# [35] = Rate 500 g/ha, headed Pre-emergence (flood test species), scale 0 to 10 (0 no effect, 10 complete control)
compound,measurement,setting,value
C=CCn1c(=O)on(C(=O)N(c2ccc(F)cc2)C(C)C)c1=O [Compound 146],Bedstraw plant response rating,[1]; [17],6
same,Bedstraw plant response rating,[1]; [18],0
same,Bedstraw plant response rating,[1]; [19],9
same,Bedstraw plant response rating (0 to 10 scale),[1]; [20],9
same,Bedstraw plant response rating,[1]; [21],10
same,Bedstraw plant response rating,[1]; [22],7
same,Bedstraw plant response rating,[1]; [23],0
same,Bedstraw plant response rating,[1]; [24],2
same,"Plant response rating, Bedstraw",[1]; [25],7
same,Bedstraw plant response rating,"[1]; Rate 500 g/ha, Postemergence, scale 0 to 10, 0 no effect, 10 complete control",8
same,Blackgrass plant response rating,[2]; [17],8
same,Blackgrass plant response rating,[2]; [18],7
same,Blackgrass plant response rating,[2]; [19],8
same,Blackgrass plant response rating (0 to 10 scale),[2]; [20],10
same,Blackgrass plant response rating,[2]; [21],10
same,Blackgrass plant response rating,[2]; [22],10
same,Blackgrass plant response rating,[2]; [23],4
same,Blackgrass plant response rating,[2]; [24],8
same,"Plant response rating, Blackgrass",[2]; [25],8
same,Blackgrass plant response rating,[2]; [26],8
same,B. signalgrass plant response rating,[3]; [17],8
same,B. signalgrass plant response rating,[3]; [18],7
same,B. signalgrass plant response rating,[3]; [19],9
same,B. signalgrass plant response rating (0 to 10 scale),[3]; [20],9
same,B. signalgrass plant response rating,[3]; [21],10
same,B. signalgrass plant response rating,[3]; [22],10
same,B. signalgrass plant response rating,[3]; [23],0
same,B. signalgrass plant response rating,[3]; [24],4
same,"Plant response rating, B. signalgrass",[3]; [25],8
same,B. signalgrass plant response rating,"[3]; Rate 500 g/ha, Postemergence, scale of 0 to 10 where 0 is no effect and 10 is complete control",9
same,Cocklebur plant response rating,[4]; [17],2
same,Cocklebur plant response rating,[4]; [18],0
same,Cocklebur plant response rating,[4]; [19],0
same,Cocklebur plant response rating (0 to 10 scale),[4]; [20],0
same,Cocklebur plant response rating,[4]; [21],0
same,Cocklebur plant response rating,[4]; [22],0
same,Cocklebur plant response rating,[4]; [23],0
same,Cocklebur plant response rating,[4]; [24],2
same,"Plant response rating, Cocklebur",[4]; [25],3
same,Cocklebur plant response rating,[4]; [26],4
same,Giant foxtail plant response rating,[5]; [17],9
same,Giant foxtail plant response rating,[5]; [18],9
same,Giant foxtail plant response rating,[5]; [19],10
same,Giant foxtail plant response rating (0 to 10 scale),[5]; [20],10
same,Giant foxtail plant response rating,[5]; [21],10
same,Giant foxtail plant response rating,[5]; [22],10
same,Giant foxtail plant response rating,[5]; [23],3
same,Giant foxtail plant response rating,[5]; [24],8
same,"Plant response rating, Giant foxtail",[5]; [25],9
same,Giant foxtail plant response rating,[5]; [26],9
same,Morningglory plant response rating,[6]; [17],5
same,Morningglory plant response rating,[6]; [18],0
same,Morningglory plant response rating,[6]; [19],2
same,Morningglory plant response rating (0 to 10 scale),[6]; [20],3
same,Morningglory plant response rating,[6]; [21],3
same,Morningglory plant response rating,[6]; [22],4
same,Morningglory plant response rating,[6]; [23],2
same,Morningglory plant response rating,[6]; [24],3
same,"Plant response rating, Morningglory",[6]; [25],8
same,Morningglory plant response rating,[6]; [26],9
same,Redroot pigweed plant response rating,[7]; [17],6
same,Redroot pigweed plant response rating,[7]; [18],10
same,Redroot pigweed plant response rating,[7]; [19],10
same,Redroot pigweed plant response rating (0 to 10 scale),[7]; [20],10
same,Redroot pigweed plant response rating,[7]; [21],10
same,Redroot pigweed plant response rating,[7]; [22],10
same,Redroot pigweed plant response rating,[7]; [23],0
same,Redroot pigweed plant response rating,[7]; [24],4
same,"Plant response rating, Redroot pigweed",[7]; [25],6
same,Redroot pigweed plant response rating,[7]; [26],8
same,Rape plant response rating,[8]; [17],2
same,Rape plant response rating,[8]; [18],0
same,Rape plant response rating,[8]; [19],2
same,Rape plant response rating (0 to 10 scale),[8]; [20],10
same,Rape plant response rating,[8]; [21],10
same,Rape plant response rating,[8]; [22],10
same,Rape plant response rating,[8]; [23],0
same,Rape plant response rating,[8]; [24],2
same,"Plant response rating, Rape",[8]; [25],3
same,Rape plant response rating,[8]; [26],5
same,Soybean plant response rating,[9]; [17],6
same,Soybean plant response rating,[9]; [18],0
same,Soybean plant response rating,[9]; [19],0
same,Soybean plant response rating (0 to 10 scale),[9]; [20],0
same,Soybean plant response rating,[9]; [21],2
same,Soybean plant response rating,[9]; [22],4
same,Soybean plant response rating,[9]; [24],3
same,"Plant response rating, Soybean",[9]; [25],6
same,Soybean plant response rating,[9]; [26],8
same,Velvetleaf plant response rating,[10]; [17],2
same,Velvetleaf plant response rating,[10]; [18],3
same,Velvetleaf plant response rating,[10]; [19],7
same,Velvetleaf plant response rating (0 to 10 scale),[10]; [20],7
same,Velvetleaf plant response rating,[10]; [21],8
same,Velvetleaf plant response rating,[10]; [22],8
same,Velvetleaf plant response rating,[10]; [24],0
same,"Plant response rating, Velvetleaf",[10]; [25],6
same,Velvetleaf plant response rating,[10]; [26],6
same,Wheat plant response rating,[11]; [17],2
same,Wheat plant response rating,[11]; [18],0
same,Wheat plant response rating,[11]; [19],2
same,Wheat plant response rating (0 to 10 scale),[11]; [20],2
same,Wheat plant response rating,[11]; [21],8
same,Wheat plant response rating,[11]; [22],8
same,Wheat plant response rating,[11]; [24],0
same,"Plant response rating, Wheat",[11]; [25],5
same,Wheat plant response rating,[11]; [26],6
same,Wild oats plant response rating,[12]; [17],3
same,Wild oats plant response rating,[12]; [18],1
same,Wild oats plant response rating,[12]; [19],9
same,Wild oats plant response rating (0 to 10 scale),[12]; [20],10
same,Wild oats plant response rating,[12]; [21],10
same,Wild oats plant response rating,[12]; [22],10
same,Wild oats plant response rating,[12]; [24],2
same,"Plant response rating, Wild oats",[12]; [25],6
same,Wild oats plant response rating,[12]; [26],7
same,Nutsedge plant response rating,[13]; [17],0
same,Nutsedge plant response rating,[13]; [18],0
same,Nutsedge plant response rating,[13]; [19],0
same,Nutsedge plant response rating (0 to 10 scale),[13]; [20],0
same,Nutsedge plant response rating,[13]; [21],0
same,Nutsedge plant response rating,[13]; [22],3
same,Nutsedge plant response rating,[13]; [23],0
same,Nutsedge plant response rating,[13]; [24],0
same,"Plant response rating, Nutsedge",[13]; [25],0
same,Nutsedge plant response rating,[13]; [26],6
same,S. Flatsedge plant response rating,[14]; [27],0
same,S. Flatsedge plant response rating,[14]; [28],0
same,S. Flatsedge plant response rating,[14]; [29],0
same,S. Flatsedge plant response rating,[14]; [30],0
same,"Plant response rating, S. Flatsedge",[14]; [31],3
same,S. Flatsedge plant response rating,[14]; [32],0
same,S. Flatsedge plant response rating,[14]; [33],9
same,S. Flatsedge plant response rating,"[14]; Rate 500 g/ha, Pre-emergence, flood test species, scale 0 to 10 (0 no effect, 10 complete control)",1
same,Ducksalad plant response rating,[15]; [27],3
same,Ducksalad plant response rating,[15]; [34],0
same,Ducksalad plant response rating,[15]; [28],2
same,Ducksalad plant response rating,[15]; [29],0
same,Ducksalad plant response rating,[15]; [30],0
same,"Plant response rating, Ducksalad",[15]; [31],5
same,Ducksalad plant response rating,[15]; [32],0
same,"Plant response rating, Ducksalad",[15]; [35],1
same,Ducksalad plant response rating,[15]; [33],6
same,Barnyardgrass plant response rating,[16]; [27],0
same,Barnyardgrass plant response rating,[16]; [34],0
same,Barnyardgrass plant response rating,[16]; [28],0
same,Barnyardgrass plant response rating,[16]; [29],0
same,Barnyardgrass plant response rating,[16]; [30],0
same,"Plant response rating, Barnyardgrass",[16]; [31],1
same,Barnyardgrass plant response rating,[16]; [32],1
same,"Plant response rating, Barnyardgrass",[16]; [35],5
same,Barnyardgrass plant response rating,"[16]; Rate 500 g/ha, listed under Postemergence (flood test species), scale 0 to 10, 0 no effect, 10 complete control",9
